Experimental data as given in PMC4577076, “Detoxification of Indole by an Indole-Induced Flavoprotein Oxygenase from Acinetobacter baumannii” (PLoS ONE, 2015).

Molecular target: T1, IifC (Acinetobacter baumannii, UniProt A0ABX6CFV1)
T1 construct: gene styA; full length, 412 aa; pQE-80L (BamHI/PstI); expressed in E. coli CY15000 (tnaA mutant); purified by Q-Sepharose anion exchange
T1 sequence (A0ABX6CFV1 1-412): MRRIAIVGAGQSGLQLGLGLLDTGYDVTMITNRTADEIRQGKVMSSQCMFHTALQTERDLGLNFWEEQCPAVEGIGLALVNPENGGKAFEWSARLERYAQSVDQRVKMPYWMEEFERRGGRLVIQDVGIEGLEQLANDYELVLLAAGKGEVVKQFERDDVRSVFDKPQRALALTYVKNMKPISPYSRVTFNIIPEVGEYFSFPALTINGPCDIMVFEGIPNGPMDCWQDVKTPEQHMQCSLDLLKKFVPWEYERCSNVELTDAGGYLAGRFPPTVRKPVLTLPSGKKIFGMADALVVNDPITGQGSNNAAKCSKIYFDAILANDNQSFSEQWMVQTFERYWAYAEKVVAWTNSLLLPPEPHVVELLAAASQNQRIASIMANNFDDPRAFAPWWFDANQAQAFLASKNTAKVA
Test: FAD content of purified protein
Format: binding
Settings: as purified from E. coli; non-covalently bound

Cc1cc2nc3c(=O)[nH]c(=O)nc-3n(C[C@H](O)[C@H](O)[C@H](O)COP(=O)(O)OP(=O)(O)OC[C@H]3O[C@@H](n4cnc5c(N)ncnc54)[C@H](O)[C@@H]3O)c2cc1C [flavin adenine dinucleotide]
mol FAD per mol protein: 0.48 mol/mol
